Results: a compilation of properties of binary mixtures (doi:10.1021/acs.jced.0c00987)

Experiment: xn = mol fraction of the nth substance listed
Conditions: 100 kPa

OCCO + CCOS(=O)(=O)[O-].CC[n+]1ccn(C)c1
x1 = 1
Conditions	viscosity [mPa·s]
293.15 K	20.8
313.15 K	9.52

OCCO + CC[n+]1ccn(C)c1.O=S(=O)([O-])C(F)(F)F
x1 = 1
Conditions	viscosity [mPa·s]
293.15 K	20.8
298.15 K	16.8
303.15 K	13.8
313.15 K	9.52

CC[n+]1ccn(C)c1.O=S(=O)([O-])C(F)(F)F + OCCO
Conditions	electrical conductivity, 298.15 K [S/m]	electrical conductivity, 313.15 K [S/m]	viscosity, 293.15 K [mPa·s]	viscosity, 298.15 K [mPa·s]	viscosity, 303.15 K [mPa·s]	viscosity, 313.15 K [mPa·s]
x1 = 0.001	–	0.0144	20.75	–	13.8	9.535
x1 = 0.002	0.0193	0.0335	20.6	16.7	–	9.46
x1 = 0.007	0.054	0.093	–	16.5	13.5	9.39
x1 = 0.013	0.082	0.137	20.1	16.3	–	9.28
x2 = 0.2	1.21	1.83	32.8	27.6	–	17.3
x2 = 0.413	1.44	2.17	21.9	18.6	15.9	11.9
x2 = 0.497	–	–	19.4	16.4	14	–
x2 = 0.498	1.51	2.28	–	–	–	–
x2 = 0.586	1.41	2.12	–	–	–	–
x2 = 0.587	–	–	17.6	14.8	12.7	9.5
x2 = 0.697	1.25	1.91	15.8	13.3	11.3	8.39
x2 = 0.808	0.95	–	15.7	13	11	–
x2 = 0.863	0.74	1.2	15.6	12.9	10.1	7.81
x2 = 0.907	0.52	0.87	17.1	14.1	11.7	8.32
x2 = 0.944	0.331	0.56	18.3	15	12.4	8.71
x2 = 0.974	0.161	0.276	–	15.9	13.1	9.1

OCCN(CCO)CCO + CCOS(=O)(=O)[O-].CC[n+]1ccn(C)c1
Conditions	electrical conductivity, 298.15 K [S/m]	electrical conductivity, 313.15 K [S/m]	viscosity, 293.15 K [mPa·s]	viscosity, 298.15 K [mPa·s]	viscosity, 303.15 K [mPa·s]	viscosity, 313.15 K [mPa·s]
x1 = 0.153	0.356	–	–	97.8	77.1	–
x1 = 0.285	0.284	0.53	121.9	94.1	74	48.1
x1 = 0.52	0.173	0.349	137.4	103.5	79.5	49.8
x1 = 0.617	0.126	0.266	–	117.8	–	54.3
x1 = 0.703	0.085	0.189	209.4	151.8	112.4	66
x1 = 0.787	–	0.108	286.6	–	146.5	82.5
x1 = 0.866	0.0219	0.055	416	287.3	–	110.1
x1 = 0.929	–	0.0234	583	–	–	143.5
x1 = 0.967	–	0.0103	–	–	–	167.7
x2 = 0.003	0.0004	0.0012	871	579	394	197.1
x2 = 0.006	0.0008	0.0021	857	570	–	195.3
x2 = 0.019	0.0021	0.0058	792	528	361	182.4

OCCN(CCO)CCO + CC[n+]1ccn(C)c1.O=S(=O)([O-])C(F)(F)F
Conditions	electrical conductivity, 298.15 K [S/m]	electrical conductivity, 313.15 K [S/m]	viscosity, 293.15 K [mPa·s]	viscosity, 298.15 K [mPa·s]	viscosity, 303.15 K [mPa·s]	viscosity, 313.15 K [mPa·s]
x1 = 0.084	0.82	1.29	–	43.4	–	25.7
x1 = 0.167	0.72	–	55.7	45.1	–	–
x1 = 0.305	0.53	0.92	66.8	52.5	42	28.2
x1 = 0.426	–	0.63	86.2	–	51	32.8
x1 = 0.539	–	0.463	118.7	–	66.2	40.7
x1 = 0.641	0.137	0.296	165	118.4	–	50.9
x1 = 0.723	0.079	–	233.1	163.2	117.4	–
x1 = 0.802	0.041	0.102	336	228.6	160.6	86.3
x1 = 0.875	–	0.05	477	–	220.7	114.8
x1 = 0.94	0.0067	0.019	678	449	306.2	155
x1 = 0.969	0.0032	0.0092	793	523	355	177.4
x2 = 0.003	0.0004	0.0012	913	599	405	200.7
x2 = 0.006	0.0007	–	902	591	–	–
x2 = 0.017	0.0019	0.0054	848	557	377	188

CCOS(=O)(=O)[O-].CC[n+]1ccn(C)c1 + OCC(O)CO
Conditions	electrical conductivity, 298.15 K [S/m]	electrical conductivity, 313.15 K [S/m]	viscosity, 293.15 K [mPa·s]	viscosity, 298.15 K [mPa·s]	viscosity, 303.15 K [mPa·s]	viscosity, 313.15 K [mPa·s]
x1 = 0.002	0.0004	–	1381.9	892	590	–
x1 = 0.004	0.0006	–	1352.7	873	578	–
x1 = 0.012	0.002	0.0063	1239	804	535	255.6
x2 = 0	–	–	123.5	95.9	75.7	49.7
x2 = 0.123	–	0.72	114.1	–	70.7	46.7
x2 = 0.264	0.386	0.71	104.7	81.9	–	43.1
x2 = 0.39	0.365	0.67	101.5	79.1	62.6	41.2
x2 = 0.5	0.313	0.6	–	81.2	–	41.2
x2 = 0.601	–	0.496	121	–	70.4	44.1
x2 = 0.703	0.173	0.371	162.3	119.2	89.3	53.3
x2 = 0.794	0.089	0.209	248.6	176.4	128	72.1
x2 = 0.901	0.026	0.071	533	360	249.8	129.3
x2 = 0.958	0.0075	–	922	604	406	–
x2 = 0.98	0.0033	0.0102	1138.7	742	–	237.9

CC[n+]1ccn(C)c1.O=S(=O)([O-])C(F)(F)F + OCC(O)CO
Conditions	electrical conductivity, 298.15 K [S/m]	electrical conductivity, 313.15 K [S/m]	viscosity, 293.15 K [mPa·s]	viscosity, 298.15 K [mPa·s]	viscosity, 303.15 K [mPa·s]	viscosity, 313.15 K [mPa·s]
x1 = 0.002	0.0003	0.0008	–	887	588	280.1
x1 = 0.004	0.0006	0.0018	1333.2	862	572	272.9
x1 = 0.011	0.0014	0.0044	1257.8	815	543	259.2
x1 = 0.018	0.0025	–	1168.4	760	506	–
x2 = 0.199	0.85	1.35	–	40.1	33.2	23.6
x2 = 0.299	0.77	–	50.2	40.7	33.4	–
x2 = 0.401	–	1.16	57.2	–	36.6	24.9
x2 = 0.499	0.492	0.89	70.2	54.4	42.9	28
x2 = 0.605	0.316	0.6	–	73.4	56	34.7
x2 = 0.698	0.198	0.416	–	106.2	78.8	46.3
x2 = 0.805	0.089	0.21	261.5	182.8	130.6	71.6
x2 = 0.899	0.0255	0.066	545	366	251.6	128.5
x2 = 0.919	0.0172	0.0486	646	430	293.3	147.6
x2 = 0.962	0.0056	0.0174	–	633	–	206.8

CCOS(=O)(=O)[O-].CC[n+]1ccn(C)c1 + OCCO
Conditions	electrical conductivity, 298.15 K [S/m]	electrical conductivity, 313.15 K [S/m]	viscosity, 293.15 K [mPa·s]	viscosity, 298.15 K [mPa·s]	viscosity, 303.15 K [mPa·s]	viscosity, 313.15 K [mPa·s]
x1 = 0.001	–	0.0161	–	–	13.5	9.345
x1 = 0.003	0.0213	–	20.6	16.7	–	–
x1 = 0.008	0.057	–	20.6	16.7	13.7	–
x1 = 0.014	0.096	0.162	20.3	16.5	13.5	9.4
x2 = 0	–	–	123.5	–	75.7	49.7
x2 = 0.304	0.68	1.13	54.6	44.5	36.7	25.1
x2 = 0.406	0.79	–	–	34.4	28.7	–
x2 = 0.506	0.86	1.36	32.3	26.9	22.7	16.6
x2 = 0.597	–	1.48	25.8	–	18.3	13.5
x2 = 0.7	0.97	1.51	20.9	17.6	14.9	11
x2 = 0.792	0.87	1.38	18.4	15.4	–	9.59
x2 = 0.851	–	1.16	17.8	–	12.5	9.08
x2 = 0.899	0.53	0.86	18	14.9	12.4	8.92
x2 = 0.938	0.36	–	18.6	15.3	12.7	–
x2 = 0.972	0.178	0.299	19.7	16.1	13.2	9.28

CCOS(=O)(=O)[O-].CC[n+]1ccn(C)c1 + OCCN(CCO)CCO
x2 = 0
Conditions	viscosity [mPa·s]
293.15 K	123.5
298.15 K	95.9
313.15 K	49.7
